Reference: ChEMBL document CHEMBL1933041, “Synthesis and biological evaluation of substituted pyrazoles as blockers of divalent metal transporter 1 (DMT1)” (Bioorg Med Chem Lett, 2012)

Assay: Permeability from apical to basolateral side in human Caco2 cells
Format: ADME, cell-based
Settings: Caco-2, read-out: permeability

| SMILES | Papp A→B [×10⁻⁶ cm/s] |
| --- | --- |
| Cc1[nH]n(-c2ccccn2)c(=O)c1C(=O)Nc1cccc(C(F)(F)F)c1 | 4.5 |
| Cc1nn(-c2nc3ccccc3[nH]2)c(O)c1-c1ccccc1 | 10.1 |
| Oc1c2c(nn1-c1nc3ccccc3s1)CCc1ccccc1-2 | 20.8 |
| Cc1[nH]n(-c2nc3ccc(F)cc3s2)c(=O)c1-c1ccccc1 | 16.8 |
| Cc1[nH]n(-c2nccs2)c(=O)c1-c1ccccc1 | 23.9 |
| Cc1ccc2nc(-n3nc4c(c3O)-c3ccccc3CC4)sc2c1 | 5.2 |
| N#Cc1ccc2c(c1)CCc1nn(-c3ccccn3)c(O)c1-2 | 2.3 |
| Oc1c2c(nn1-c1nc3ccc(F)cc3s1)CCc1ccccc1-2 | 4.3 |
| COc1ccc2nc(-n3nc4c(c3O)-c3ccccc3CC4)sc2c1 | 12.7 |
| Oc1c2c(nn1-c1ccccn1)CCc1cc(-c3ccccc3)ccc1-2 | 0.1 |
| Cc1[nH]n(-c2ccccn2)c(=O)c1C(=O)Nc1ccccc1C(F)(F)F | 7.8 |
| Cc1[nH]n(-c2ccccn2)c(=O)c1C(=O)Nc1ccccc1 | 10.4 |
| Oc1c2c(nn1-c1ccccn1)CCc1ccccc1-2 | 8.9 |
| CCN(CC)c1ccc(/C=C2\C(=O)N(c3ccccn3)N=C2C)cc1 | 0.3 |
| Cc1nn(-c2nc3ccccc3s2)c(O)c1-c1ccccc1 | 6.7 |
| COc1cccc(NC(=O)c2c(C)[nH]n(-c3ccccn3)c2=O)c1 | 9 |
| Cc1[nH]n(-c2ccccn2)c(=O)c1C(=O)Nc1ccc2c(c1)OCO2 | 9.3 |
| Oc1c2c(nn1-c1nc3ccccc3[nH]1)CCc1ccccc1-2 | 5.1 |
| Oc1c2c(nn1-c1ccccn1)CCc1cc(Br)ccc1-2 | 3.2 |
| Cc1nn(-c2ccccn2)c(O)c1-c1ccccc1 | 8.2 |
| COc1ccc(NC(=O)c2c(C)[nH]n(-c3ccccn3)c2=O)cc1F | 6.6 |

Other lines, results leading:

| Papp A→B [×10⁻⁶ cm/s] | SMILES |
| --- | --- |
| 6.1 | Cc1ccc(NC(=O)c2c(C)[nH]n(-c3ccccn3)c2=O)cc1 |
| 7.6 | Cc1[nH]n(-c2ccccn2)c(=O)c1C(=O)Nc1ccc([N+](=O)[O-])cc1 |
| 7 | Cc1[nH]n(-c2ccccn2)c(=O)c1-c1cccc(C(F)(F)F)c1 |
| 9.9 | Cc1cccc(NC(=O)c2c(C)[nH]n(-c3ccccn3)c2=O)c1 |
| 3.1 | Cc1[nH]n(-c2ccccn2)c(=O)c1-c1ccc(C(F)(F)F)cc1 |
| 3.5 | Cc1[nH]n(-c2ccccn2)c(=O)c1-c1ccc([N+](=O)[O-])cc1 |
| 12.7 | COc1ccc(-c2c(C)[nH]n(-c3ccccn3)c2=O)cc1 |
| 0.6 | Cc1[nH]n(-c2ccccn2)c(=O)c1C(=O)Nc1ccc(C(F)(F)F)cc1 |
| 11.2 | Cc1[nH]n(-c2ccccn2)c(=O)c1-c1ccc(F)cc1 |
| 11.2 | Cc1[nH]n(-c2ccccn2)c(=O)c1C(=O)Nc1ccccc1[N+](=O)[O-] |
| 21.4 | Cc1[nH]n(-c2ccccn2)c(=O)c1-c1ccc(C#N)cc1 |

Assay: Permeability from basolateral to apical side in human Caco2 cells
Format: ADME, cell-based
Settings: Caco-2, read-out: permeability

| SMILES | Papp B→A [×10⁻⁶ cm/s] |
| --- | --- |
| Cc1[nH]n(-c2ccccn2)c(=O)c1C(=O)Nc1cccc(C(F)(F)F)c1 | 8.9 |
| Cc1nn(-c2nc3ccccc3[nH]2)c(O)c1-c1ccccc1 | 13.5 |
| Oc1c2c(nn1-c1nc3ccccc3s1)CCc1ccccc1-2 | 24 |
| Cc1[nH]n(-c2nc3ccc(F)cc3s2)c(=O)c1-c1ccccc1 | 20.1 |
| Cc1[nH]n(-c2nccs2)c(=O)c1-c1ccccc1 | 23.8 |
| Cc1ccc2nc(-n3nc4c(c3O)-c3ccccc3CC4)sc2c1 | 3.4 |
| N#Cc1ccc2c(c1)CCc1nn(-c3ccccn3)c(O)c1-2 | 13.1 |
| Oc1c2c(nn1-c1nc3ccc(F)cc3s1)CCc1ccccc1-2 | 1.1 |
| COc1ccc2nc(-n3nc4c(c3O)-c3ccccc3CC4)sc2c1 | 16.7 |
| Oc1c2c(nn1-c1ccccn1)CCc1cc(-c3ccccc3)ccc1-2 | 0.9 |
| Cc1[nH]n(-c2ccccn2)c(=O)c1C(=O)Nc1ccccc1C(F)(F)F | 14.2 |
| Cc1[nH]n(-c2ccccn2)c(=O)c1C(=O)Nc1ccccc1 | 19.6 |
| Oc1c2c(nn1-c1ccccn1)CCc1ccccc1-2 | 11.7 |
| CCN(CC)c1ccc(/C=C2\C(=O)N(c3ccccn3)N=C2C)cc1 | 0.6 |
| Cc1nn(-c2nc3ccccc3s2)c(O)c1-c1ccccc1 | 6.6 |
| COc1cccc(NC(=O)c2c(C)[nH]n(-c3ccccn3)c2=O)c1 | 15.4 |
| Cc1[nH]n(-c2ccccn2)c(=O)c1C(=O)Nc1ccc2c(c1)OCO2 | 20.8 |
| Oc1c2c(nn1-c1nc3ccccc3[nH]1)CCc1ccccc1-2 | 6.3 |
| Oc1c2c(nn1-c1ccccn1)CCc1cc(Br)ccc1-2 | 7.6 |
| Cc1nn(-c2ccccn2)c(O)c1-c1ccccc1 | 16.7 |
| COc1ccc(NC(=O)c2c(C)[nH]n(-c3ccccn3)c2=O)cc1F | 13.2 |

Second part, the compound after the results:

| Papp B→A [×10⁻⁶ cm/s] | SMILES |
| --- | --- |
| 15.3 | Cc1ccc(NC(=O)c2c(C)[nH]n(-c3ccccn3)c2=O)cc1 |
| 11.5 | Cc1[nH]n(-c2ccccn2)c(=O)c1C(=O)Nc1ccc([N+](=O)[O-])cc1 |
| 5.8 | Cc1[nH]n(-c2ccccn2)c(=O)c1-c1cccc(C(F)(F)F)c1 |
| 15.6 | Cc1cccc(NC(=O)c2c(C)[nH]n(-c3ccccn3)c2=O)c1 |
| 7.9 | Cc1[nH]n(-c2ccccn2)c(=O)c1-c1ccc(C(F)(F)F)cc1 |
| 5.6 | Cc1[nH]n(-c2ccccn2)c(=O)c1-c1ccc([N+](=O)[O-])cc1 |
| 16.3 | COc1ccc(-c2c(C)[nH]n(-c3ccccn3)c2=O)cc1 |
| 3.9 | Cc1[nH]n(-c2ccccn2)c(=O)c1C(=O)Nc1ccc(C(F)(F)F)cc1 |
| 15.9 | Cc1[nH]n(-c2ccccn2)c(=O)c1-c1ccc(F)cc1 |
| 15.5 | Cc1[nH]n(-c2ccccn2)c(=O)c1C(=O)Nc1ccccc1[N+](=O)[O-] |
| 27.8 | Cc1[nH]n(-c2ccccn2)c(=O)c1-c1ccc(C#N)cc1 |
